Source: patent US11613538B2, “Method of inhibiting or reducing a viral infection” (PTC Therapeutics, Inc., priority 2009, dated 2023)

These molecules were tested on hypoxia-induced VEGF production in HeLa cells (assay: cells). Conditions: Homo sapiens, HeLa.
Assay type: cell-based, human
For `C=CCOC(=O)N1CCc2c([nH]c3ccc(Cl)cc23)C1c1ccc(OCCCN2CCN(C)CC2)cc1` (stereo not drawn) [Compound 1072], the EC50 was < 8 nM.
Work on `CN1CCC(COc2ccc(C3c4[nH]c5ccc(Cl)cc5c4CCN3C(=O)Oc3ccc(Cl)cc3)cc2)CC1` (stereo not drawn) [Compound 1099] yielded an EC50 of 8 to 40 nM.
In the case of `COc1ccc(OC(=O)N2CCc3c([nH]c4ccc(S(C)(=O)=O)cc34)C2c2ccc(OC)cc2)cc1` (stereo not drawn) [Compound 1498], the EC50 is reported as > 1000 nM.
With `OC[C@H](O)COc1ccc([C@H]2c3[nH]c4ccc(Cl)cc4c3CCN2c2nc(C(F)(F)F)cs2)cc1` [Compound 1634] the EC50 was < 8 nM.
`CCOC(=O)N1CCc2c([nH]c3ccc(Cl)cc23)C1c1cccc(OCCCN2CCOCC2)c1` (stereo not drawn) [Compound 1114] was tested, and the EC50 was 8 to 40 nM.
`CCOC(=O)N1CCc2c([nH]c3ccc(Cl)cc23)[C@@H]1c1ccc(OC2OC(CO)C(O)C(O)C2O)cc1` (stereo partly drawn) [Compound 1696] was tested, and the EC50 was > 1000 nM.
In the case of `C=CCOC(=O)N1CCc2c([nH]c3ccc(Cl)cc23)C1c1ccc(OCCCn2nccn2)cc1` (stereo not drawn) [Compound 1081], the EC50 is reported as < 8 nM.
For `O=C(Oc1ccc(F)cc1)N1CCc2c([nH]c3ccc(Cl)cc23)C1c1ccc(OCCCn2nccn2)cc1` (stereo not drawn) [Compound 1017], the EC50 was < 8 nM.
With `COc1ccc(OC(=O)N2CCc3c([nH]c4ccc(Cl)cc34)C2c2ccc(OCCC3CCCN3C)cc2)cc1` (stereo not drawn) [Compound 1005] the EC50 was 200 to 1000 nM.
`C#CCCOC(=O)N1CCc2c([nH]c3ccc(Cl)cc23)C1c1ccc(OCC2OCCO2)cc1` (stereo not drawn) [Compound 1049] was tested, and the EC50 was < 8 nM.
`CC#CCOC(=O)N1CCc2c([nH]c3ccc(Cl)cc23)C1c1ccc(OCC(N)=O)cc1` (stereo not drawn) [Compound 1212] showed an EC50 of 8 to 40 nM.
With `COc1ccc(OC(=O)N2CCc3c([nH]c4cc(Cl)ccc34)C2c2ccc(OC)cc2)cc1` (stereo not drawn) [Compound 1455] the EC50 was > 1000 nM.
In the case of `O=C(OCc1ccccc1Cl)N1CCc2c([nH]c3ccc(Cl)cc23)C1c1ccc(OCC2OCCO2)cc1` (stereo not drawn) [Compound 1057], the EC50 is reported as < 8 nM.
`CC1(C)OC[C@H](CCOc2ccc([C@H]3c4[nH]c5ccc(Cl)cc5c4CCN3c3ncccn3)cc2)O1` [Compound 1244] was tested, and the EC50 was < 8 nM.
Molecule `Cc1ccc(OC(=O)N2CCc3c([nH]c4ccc(Cl)cc34)[C@@H]2c2ccc(OCCC(O)CN(CCO)CCO)cc2)cc1` (stereo partly drawn) [Compound 1288] has an EC50 of 8 to 40 nM.
With `CC(C)(C)OC(=O)N1CCc2c([nH]c3ccc(Cl)cc23)[C@@H]1c1ccc(OCCCn2ccnn2)cc1` [Compound 1239] the EC50 was < 8 nM.
Molecule `COc1ccc(C2c3[nH]c4ccc(Cl)cc4c3CCN2C(=O)C(=O)Nc2ccc(Cl)cc2)cc1` (stereo not drawn) [Compound 1711] has an EC50 of 8 to 40 nM.
With `CC#CCOC(=O)N1CCc2c([nH]c3cc(Br)ccc23)C1c1ccc(OC(F)F)cc1` (stereo not drawn) [Compound 1445] the EC50 was 40 to 200 nM.
With `CC(C)(C)OC(=O)N1CCc2c([nH]c3ccc(Cl)cc23)C1c1ccc(OCCCn2cncn2)cc1` (stereo not drawn) [Compound 1188] the EC50 was < 8 nM.
`O=C(Oc1ccc(Cl)cc1)N1CCc2c([nH]c3ccc(Cl)cc23)[C@@H]1c1ccc(OC[C@H](O)CN2CCOCC2)cc1` [Compound 1070] was tested, and the EC50 was < 8 nM.
For `COc1ccc([C@H]2c3[nH]c4ccc(Cl)cc4c3CCN2C(=O)OCC2CCC2)cc1` [Compound 1372], the EC50 was < 8 nM.
For `CCOC(=O)N1CCc2c([nH]c3ccc(Cl)cc23)C1c1ccc(OCC#N)cc1` (stereo not drawn) [Compound 1543], the EC50 was < 8 nM.
For `COc1ccc(C2c3[nH]c4cccc(Br)c4c3CCN2C(=O)Oc2ccccc2Cl)cc1` (stereo not drawn) [Compound 1528], the EC50 was > 1000 nM.
With `Clc1ccc2[nH]c3c(c2c1)CCNC3c1ccc(OC2CCOCC2)cc1` (stereo not drawn) [Compound 1220] the EC50 was 40 to 200 nM.
In the case of `O=C(Oc1ccc(Cl)cc1)N1CCc2c([nH]c3ccc(Cl)cc23)C1c1ccc(OCCCO)cc1` (stereo not drawn) [Compound 1111], the EC50 is reported as < 8 nM.
`CCOC(=O)N1CCc2c([nH]c3ccc(Cl)cc23)C1c1cnc(OC)nc1` (stereo not drawn) [Compound 1691] was tested, and the EC50 was 40 to 200 nM.
With `CCOC(=O)N1CCc2c([nH]c3ccc(Cl)cc23)C1c1ccc(OC)c(F)c1` (stereo not drawn) [Compound 1198] the EC50 was 8 to 40 nM.
For `CN1CCCC1CCOc1ccc(C2c3[nH]c4ccc(Cl)cc4c3CCN2C(=O)Oc2ccc(F)cc2)cc1` (stereo not drawn) [Compound 1008], the EC50 was 40 to 200 nM.
Work on `COCCOC(=O)N1CCc2c([nH]c3ccc(Cl)cc23)C1c1ccc(OCCn2cc(C#N)c(N)n2)cc1` (stereo not drawn) [Compound 1438] yielded an EC50 of 40 to 200 nM.
In the case of `CCC(CO)(CO)COc1ccc([C@H]2c3[nH]c4ccc(Cl)cc4c3CCN2C(=O)OCC(C)C)cc1` [Compound 1326], the EC50 is reported as < 8 nM.
With `C=CCOc1ccc([C@H]2c3[nH]c4ccc(Cl)cc4c3CCN2C(=O)OCC2CCC2)cc1` [Compound 1366] the EC50 was < 8 nM.
With `CCOC(=O)N1CCc2c([nH]c3ccc(Cl)cc23)C1c1cccc(C(=O)NCC(=O)O)c1` (stereo not drawn) [Compound 1388] the EC50 was > 1000 nM.
`CCOC(=O)N1CCc2c([nH]c3ccc(Cl)cc23)C1c1ccc(OCC(=O)N2CCOCC2)cc1` (stereo not drawn) [Compound 1012] was tested, and the EC50 was 40 to 200 nM.
For `CCOC(=O)N1CCc2c([nH]c3ccc(Cl)cc23)[C@@H]1c1ccc(Oc2ncc(CS(C)(=O)=O)s2)cc1` [Compound 1700], the EC50 was < 8 nM.
`COc1ccc(C2c3[nH]c4ccc(Cl)cc4c3CCN2C(=O)C(=O)OCC2CCC2)cc1` (stereo not drawn) [Compound 1718] was tested, and the EC50 was 8 to 40 nM.
`C/C=C/C(=O)N1CCc2c([nH]c3ccc(Cl)cc23)C1c1ccc(OCCCn2cncn2)cc1` (stereo not drawn) [Compound 1510] was tested, and the EC50 was 8 to 40 nM.
For `COc1ccc(C2c3[nH]c4cc(F)ccc4c3CCN2C(=O)Oc2ccc(Cl)cc2)cc1` (stereo not drawn) [Compound 1461], the EC50 was 200 to 1000 nM.
`CCOC(=O)N1CCc2c([nH]c3ccc(Cl)cc23)C1c1cccc(OCCCN2CCN(C)CC2)c1` (stereo not drawn) [Compound 1112] was tested, and the EC50 was > 1000 nM.
`COc1ccc(C2c3[nH]c4ccc(Cl)cc4c3CCN2c2nc(-c3cccnc3)cs2)cc1` (stereo not drawn) [Compound 1592] showed an EC50 of 40 to 200 nM.
`CCC(CO)(CO)COc1ccc([C@H]2c3[nH]c4ccc(Cl)cc4c3CCN2C(=O)OCC2CCC2)cc1` [Compound 1385] was tested, and the EC50 was < 8 nM.
`COc1ccc(OC(=O)N2CCc3c([nH]c4cc(F)ccc34)C2c2ccc(OC(F)F)cc2)cc1` (stereo not drawn) [Compound 1462] was tested, and the EC50 was 200 to 1000 nM.
In the case of `CC#CCOC(=O)N1CCc2c([nH]c3ccc(Cl)cc23)C1c1ccc(OC2CCN(S(=O)(=O)CC[Si](C)(C)C)CC2)cc1` (stereo not drawn) [Compound 1579], the EC50 is reported as < 8 nM.
In the case of `[H]/N=C(\N)NCCOc1ccc(C2c3[nH]c4ccc(Cl)cc4c3CCN2C(=O)OCC)cc1` (stereo not drawn) [Compound 1397], the EC50 is reported as 40 to 200 nM.
`CCOC(=O)c1csc(N2CCc3c([nH]c4ccc(Cl)cc34)C2c2ccc(OC)cc2)n1` (stereo not drawn) [Compound 1585] was tested, and the EC50 was < 8 nM.
Work on `O=C(OCC1CCCC1)N1CCc2c([nH]c3ccc(Cl)cc23)[C@@H]1c1ccc(O)cc1` [Compound 1631] yielded an EC50 of 40 to 200 nM.
`COc1ccc(C(=O)N2CCc3c([nH]c4ccc(Cl)cc34)C2c2ccc(OCCCn3cncn3)cc2)cc1` (stereo not drawn) [Compound 1191] was tested, and the EC50 was 40 to 200 nM.
With `OC[C@@H](O)COc1ccc([C@H]2c3[nH]c4ccc(Cl)cc4c3CCN2c2nc(C(F)(F)F)cs2)cc1` [Compound 1633] the EC50 was < 8 nM.
With `COc1ccc(OC(=O)C(=O)N2CCc3c([nH]c4ccc(Cl)cc34)C2c2ccc(OC)cc2)cc1` (stereo not drawn) [Compound 1723] the EC50 was > 1000 nM.
With `C[Si](C)(C)CCS(=O)(=O)N1CCC(Oc2ccc(C3c4[nH]c5ccc(Cl)cc5c4CCN3c3ncccn3)cc2)CC1` (stereo not drawn) [Compound 1583] the EC50 was < 8 nM.
Work on `COc1cc(C2c3[nH]c4ccc(Cl)cc4c3CCN2C(=O)Oc2ccc(F)cc2)ccc1OCCCn1nccn1` (stereo not drawn) [Compound 1148] yielded an EC50 of 8 to 40 nM.
Molecule `COc1ccc(C2c3[nH]c4ccc(C#N)cc4c3CCN2C(=O)Oc2ccc(F)cc2)cc1` (stereo not drawn) [Compound 1514] has an EC50 of 40 to 200 nM.
`O=C(Oc1ccc(Cl)cc1)N1CCc2c([nH]c3ccc(Cl)cc23)[C@@H]1c1ccc(OC2CCN(CCN3CCOCC3)CC2)cc1` [Compound 1682] was tested, and the EC50 was < 8 nM.
With `COc1cc(C2c3[nH]c4ccc(Cl)cc4c3CCN2C(=O)Oc2ccc(F)cc2)ccc1OCCCN1CCOCC1` (stereo not drawn) [Compound 1133] the EC50 was < 8 nM.
Work on `[H]/N=C(\N)NCCOc1ccc(C2c3[nH]c4ccc(Cl)cc4c3CCN2C(=O)OCC(C)C)cc1` (stereo not drawn) [Compound 1435] yielded an EC50 of 200 to 1000 nM.
`CCOC(=O)N1CCc2c([nH]c3ccc(Cl)cc23)[C@@H]1c1ccc(OCCC(O)CNC(=O)C(C)C)cc1` (stereo partly drawn) [Compound 1616] gave an EC50 of 8 to 40 nM.
With `CCOC(=O)N1CCc2c([nH]c3ccc(Cl)cc23)[C@@H]1c1ccc(Oc2nccnc2C)cc1` [Compound 1654] the EC50 was < 8 nM.
With `CCOC(=O)N1CCc2c([nH]c3ccc(Cl)cc23)C1c1ccc(OCC(O)CNS(=O)(=O)C2CC2)cc1` (stereo not drawn) [Compound 1475] the EC50 was < 8 nM.
For `CCOC(=O)N1CCc2c([nH]c3ccc(Cl)cc23)[C@@H]1c1ccc(OCC(C)(CO)CO)cc1` [Compound 1283], the EC50 was < 8 nM.
`O=C(/C=C/c1ccccc1)N1CCc2c([nH]c3ccc(Cl)cc23)C1c1ccc(OCCCn2cncn2)cc1` (stereo not drawn) [Compound 1508] gave an EC50 of 8 to 40 nM.
Work on `CC(C)OC(=O)N1CCc2c([nH]c3ccc(Br)cc23)C1c1ccc(OCC(O)CO)cc1` (stereo not drawn) [Compound 1341] yielded an EC50 of 8 to 40 nM.
`CCN(CC)C[C@@H](O)COc1ccc([C@H]2c3[nH]c4ccc(Cl)cc4c3CCN2c2ncccn2)cc1` [Compound 1311] showed an EC50 of 40 to 200 nM.
With `COc1ccc(C2c3[nH]c4ccc(Cl)cc4c3CCN2c2nc(C(C)(C)C)cs2)cc1` (stereo not drawn) [Compound 1587] the EC50 was < 8 nM.
Molecule `Clc1ccc2[nH]c3c(c2c1)CCN(c1ncccn1)[C@H]3c1ccc(OC[C@H]2CO2)cc1` [Compound 1246] has an EC50 of 8 to 40 nM.
For `O=C(Oc1ccc(Cl)cc1)N1CCc2c([nH]c3ccc(Cl)cc23)[C@@H]1c1ccc(OCCCN(CCO)CCO)cc1` [Compound 1258], the EC50 was < 8 nM.
Work on `N=C1SCCN1CCCOc1ccc(C2c3[nH]c4ccc(Cl)cc4c3CCN2C(=O)OCCF)cc1` (stereo not drawn) [Compound 1432] yielded an EC50 of 8 to 40 nM.
`COc1ccc(C2c3[nH]c4ccc(Cl)cc4c3CCN2C(=S)Oc2ccc(C)cc2)cn1` (stereo not drawn) [Compound 1477] showed an EC50 of 8 to 40 nM.
Molecule `O=C(Oc1ccccc1Cl)N1CCc2c([nH]c3cc(Br)ccc23)C1c1ccc(OC(F)F)cc1` (stereo not drawn) [Compound 1449] has an EC50 of 200 to 1000 nM.
Molecule `COC(=O)N1CCc2c([nH]c3ccc(Cl)cc23)C1c1ccc(OCC2CCCCN2C)cc1` (stereo not drawn) [Compound 1010] has an EC50 of 40 to 200 nM.
In the case of `COc1ccc(C2c3[nH]c4ccc(Cl)cc4c3CCN2c2nc(-c3ccccn3)cs2)cc1` (stereo not drawn) [Compound 1590], the EC50 is reported as 8 to 40 nM.
For `CCOC(=O)N1CCc2c([nH]c3ccc(Cl)cc23)C1c1cccc(OCCCN2CCSCC2)c1` (stereo not drawn) [Compound 1116], the EC50 was 8 to 40 nM.
In the case of `CCOC(=O)N1CCc2c([nH]c3cccc(Br)c23)C1c1ccc(OC)cc1` (stereo not drawn) [Compound 1521], the EC50 is reported as 200 to 1000 nM.
With `CC(CO)(CO)COc1ccc([C@H]2c3[nH]c4ccc(Cl)cc4c3CCN2C(=O)OCC2CCC2)cc1` [Compound 1376] the EC50 was < 8 nM.
